Patent US6989401B2, “Sulfonic acid derivatives of hydroxamic acids and their use as medicinal products” (Mitsubishi Pharma Corporation, priority 2000, dated 2006)
Read-outs that look alike come from different tables or passages of the source.

Experiments:
[1] = system: LPS in E. coli culture supernatant (E. coli NIHJ JC-2 strain); assay: Inhibitory effect on LPS in E. coli culture supernatant; type: cell-based; settings: 24 hr; for inhibitory effect of compound on LPS in E. coli culture supernatant, relative ratio: relative ratio to the inhibitory ratio of the compound of Example 1 as 1.0, compound 100 μM
Procedure: One platinum loop of E. coli NIHJ JC-2 strain was inoculated into a test tube containing heart infusion broth (HIB, 5 mL) and cultured for about 24 hr. The bacterial culture broth was washed three times by centrifugation (3000 rpm, 15 min, 20° C., TOMY Seiko, RL-131) using 10 mL of fresh HIB medium for one cycle of washing. The washed bacteria were prepared to an about 10^7 colony forming unit (CFU)/mL with a fresh HIB medium, and 0.2 mL of the prepared bacterial suspension was inoculated into an Erlenmeyer flask containing a fresh HIB medium (18.8 mL) (i.e., to final bacterial concentration of about 10^5 CFU/mL). A solution (1 mL) of each compound prepared to a concentration of 2 mM (final concentration of compound 100 μM) was added to the culture broth containing the bacteria. Using a shaker (RGR-1 type, manufactured by IWASHIYA, Ltd.), shake culture was conducted at 37° C., and 2 mL of culture broth after 24 hr was sampled. The sampled culture broth was filtered (DISMIC, 0.45 μm, Advantech Toyo) and diluted 10^5-fold with sterile distilled water. The resulting suspension (200 μL) was added to a limulus reagent (LAL ES, Wako Pure Chemical Industries) and LPS concentration was measured using Toxinometer MT-285 (Wako Pure Chemical Industries) preheated to 37° C.
The LPS inhibitory ratio of the compound was calculated as a ratio of the LPS concentration of the compound addition group relative to the LPS concentration of the compound non-addition group. […] The inhibitory ratio of each compound is shown in the following in Table 1 as a relative ratio to the inhibitory ratio of the compound of Example 1 as 1.0.

[2] = system: LPS in rat peritonitis (CLP; cecal ligation and puncture) model; assay: Inhibitory effect on LPS that increases in rat peritonitis (CLP) model; type: in vivo; settings: iv, continuous tail vein infusion 2.5 mg/kg/hr
Procedure: Rat peritonitis (CLP; cecal ligation and puncture) model was prepared according to the method of Wichterman et al. (J. Surg. Res. 29, 189-201 <1980>). That is, a rat fasted overnight was anesthetized with ether, and a midline laparotomy was performed and the cecum was exposed. The cecum was ligated with a 3-0 silk thread at its base and perforated two times with an 18 G injection needle. The cecum was gently squeezed to extrude feces, which were spread around the abdomen, and the sectioned part was sutured. The animal was fixed in a Borrmann cage, and physiological saline or drug solution ([…]) was continuously given from the tail vein at an administration rate of 2.5 mg/kg/hr with an infusion pump (22 M, Harvard, 5 mL/kg/hr as a dose).
After 6 hr of the CLP treatment, the animal was sacrificed with carbonic acid gas. The abdominal cavity was washed by injecting phosphate buffered saline (PBS; 37° C., 10 mL) and the abdominal cavity washing containing ascites (PLF; peritoneal lavage fluid) was recovered. The recovery weight of the obtained PLF was measured, and PLF was centrifuged (1500 rpm for 5 min, 4° C.) to recover supernatant. The blood taken from the heart was centrifuged (3000 rpm for 10 min, 4° C.) using a serum separation tube, and the serum was recovered. The concentration of LPS in the abdominal cavity and serum was measured using Toxinometer MT-285 (Waco Pure Chemical Industries) preheated to 37° C., after diluting the supernatant and serum of the recovered PLF 10^5-fold and 10^2-fold, respectively, with sterile distilled water, and adding 200 μL thereof to a limulus reagent (LAL ES, Waco Pure Chemical Industries). The amount of LPS per abdominal cavity was calculated from amount of recovered abdominal cavity washing (PLF)×LPS concentration of PLF.
The LPS inhibitory ratio of the compound was calculated as the ratio of LPS concentration of the compound administration group to LPS concentration of the physiological saline administration group.

[3] = peritoneal lavage fluid 6 hr after CLP, read-out: LPS inhibitory ratio (%) in abdominal cavity
[4] = serum 6 hr after CLP, read-out: LPS inhibitory ratio (%) in blood

Compound | inhibitory effect of compound on LPS in E. coli culture supernatant, relative ratio [1] | inhibition in vivo at 2.5 mg/kg/h [2, 3] [%] | inhibition in vivo at 2.5 mg/kg/h [2, 4] [%] | LPS inhibitory ratio ([1]; final concentration of compound 100 μM, shake culture 37° C., limulus reagent) | inhibitory effect of compound on LPS in E. coli culture supernatant, relative ratio ([1]; sodium salt)
CC(C)C[C@@H](C(=O)N[C@@H](Cc1ccccc1)C(=O)NCCCS(=O)(=O)[O-])C(CN1C(=O)c2ccccc2C1=O)C(=O)NO.[Na+] (single isomer, unassigned) [Example 19, 5-methyl-3(R)-[2-phenyl-1(S)-(3-sulfopropylcarbamoyl)ethylcarbamoyl]-2(R or S)-phthalimidomethylhexanohydroxamic acid sodium salt] | 0.67 | 89.6 | 67.8 |  | 
CNC(=O)[C@H](Cc1ccc(OCCCS(=O)(=O)[O-])cc1)NC(=O)[C@H](CC(C)C)C(CN1C(=O)c2ccccc2C1=O)C(=O)NO.[Na+] (single isomer, unassigned) [Example 1, 5-methyl-3(R)-{1(S)-methylcarbamoyl-2-[4-(3-sulfopropoxy)phenyl]ethylcarbamoyl}-2(R or S)-phthalimidomethylhexanohydroxamic acid sodium salt] |  | 88.3 | 79.9 | 46.5-65.8% | 1.0
CNC(=O)[C@H](Cc1ccc(OCCS(=O)(=O)[O-])cc1)NC(=O)[C@H](CC(C)C)C(CN1C(=O)c2ccccc2C1=O)C(=O)NO.[Na+] (single isomer, unassigned) [Example 10, 5-methyl-3(R)-{1(S)-methylcarbamoyl-2-[4-(2-sulfoethoxy)phenyl]ethylcarbamoyl}-2(R or S)-phthalimidomethylhexanohydroxamic acid sodium salt] | 0.87 | 88.1 | 81.4 |  | 
CC(C)C[C@@H](C(=O)N[C@@H](Cc1ccccc1)C(=O)NCS(=O)(=O)[O-])C(CN1C(=O)c2ccccc2C1=O)C(=O)NO.[Na+] (single isomer, unassigned) [Example 15, 5-methyl-3(R)-[2-phenyl-1(S)-(sulfomethylcarbamoyl)ethylcarbamoyl]-2(R or S)-phthalimidomethylhexanohydroxamic acid sodium salt] | 1.05 | 70.3 | 68.2 |  | 
